Experimental data taken from patent publication US10112918B2, “15-oxospiramilactone derivatives, preparation method and uses thereof” (Kunming Institute of Botany, The Chinese Academy of Sciences, priority 2013, dated 2018).
Like-named read-outs stand apart in the source and are kept apart here. Values belong to the molecule of their own block, whether it stands above or below them.

Assays:
Type in all cases: cell-based
[1] = system: SW-480 (human colon cancer cells); assay: MTT inhibition of tumor cell growth, SW-480; conditions: Homo sapiens
Procedure, shortened: (§1)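 Cells seeded at 5000-10000/well in DMEM or RPMI1640 with 10% FBS, exposed 48 h at 37 °C to compound (40 μM primary screen; 5-concentration re-screen for ~50% inhibitors), triplicates. MTT added 4 h, formazan dissolved in 10% SDS overnight, A595 read; IC50 by Reed-Muench two-point method.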

[2] = system: A-549 (Human lung adenocarcinoma cells); assay: MTT inhibition of tumor cell growth, A-549; conditions: Homo sapiens
Procedure, shortened: as §1

[3] = system: HL-60 (human promyelocytic leukemia cells); assay: MTT inhibition of tumor cell growth, HL-60; conditions: Homo sapiens
Procedure, shortened: as §1

[4] = system: SMMC-7721 (human hepatoma cells); assay: MTT inhibition of tumor cell growth, SMMC-7721; conditions: Homo sapiens
Procedure, shortened: as §1

[5] = system: Wnt signaling pathway (Top-Flash reporter gene); assay: Top-Flash Wnt reporter gene assay in HEK293T cells with Wnt3a conditioned medium; conditions: Homo sapiens, HEK-293T, 6 h, 6 h
Procedure, shortened: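 IC50 is the concentration giving relative residual reporter activity of 0.5 by 4-parameter logistic fit, after subtracting conditioned-medium DMSO background and normalizing to Wnt-induced signal. Luciferase read from HEK293T carrying TOP-flash and GFP internal standard, exposed 6 h to L-cell Wnt3a conditioned medium plus compound.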

[6] = system: MCF-7 (human breast cancer cells); assay: MTT inhibition of tumor cell growth, MCF-7; conditions: Homo sapiens
Procedure, shortened: as §1

[7] = SW480, 48 h, Table 4, derivatives obtained by reduction of the lactonic ring, read-out: IC50 SW-480
[8] = SW480, 48 h, Table 6, 7-carbonyl derivatives, read-out: IC50 SW-480, 7-carbonyl derivatives
[9] = A549, 48 h, Table 4, derivatives obtained by reduction of the lactonic ring
[10] = HL-60, 48 h, Table 4, derivatives obtained by reduction of the lactonic ring
[11] = SMMC-7721, 48 h, Table 4, derivatives obtained by reduction of the lactonic ring
[12] = Table 8, HEK293T, Wnt3a conditioned medium, read-out: IC50 (μM), inhibitory activity on the Wnt signaling pathway
[13] = MCF7, 48 h, Table 4, derivatives obtained by reduction of the lactonic ring
[14] = SW480, 48 h, Table 5, derivatives having double Michael reaction acceptor, read-out: IC50 SW-480
[15] = SW480, 48 h, Table 6, double Michael reaction acceptor derivatives, read-out: IC50 SW-480, derivatives having double Michael reaction acceptor
[16] = A549, 48 h, Table 5, derivatives having double Michael reaction acceptor
[17] = HL-60, 48 h, Table 5, derivatives having double Michael reaction acceptor
[18] = SMMC-7721, 48 h, Table 5, derivatives having double Michael reaction acceptor
[19] = Table 9, HEK293T, Wnt3a conditioned medium, read-out: IC50(μM), inhibitory activity on the Wnt signaling pathway
[20] = MCF7, 48 h, Table 5, derivatives having double Michael reaction acceptor
[21] = SW480, 48 h, Table 2, derivatives having potential Michael reaction acceptor, read-out: IC50 SW-480
[22] = A549, 48 h, Table 2, derivatives having potential Michael reaction acceptor
[23] = HL-60, 48 h, Table 2, derivatives having potential Michael reaction acceptor
[24] = SMMC-7721, 48 h, Table 2, derivatives having potential Michael reaction acceptor
[25] = MCF7, 48 h, Table 2, derivatives having potential Michael reaction acceptor
[26] = SW480, Table 7 (first), alkaloid derivatives, 48 h, read-out: IC50 SW-480
[27] = A549, Table 7 (first), alkaloid derivatives, 48 h
[28] = HL-60, Table 7 (first), alkaloid derivatives, 48 h
[29] = SMMC-7721, Table 7 (first), alkaloid derivatives, 48 h
[30] = read-out: IC50 (μM), inhibitory activity on the Wnt signaling pathway
[31] = MCF7, Table 7 (first), alkaloid derivatives, 48 h

Compound: C=C1C(=O)C23CC[C@H]1CC2[C@]1(COC(C)=O)CCC[C@@](C)(COC(=O)c2cccs2)C1CC3=O (some centres unmarked) [Compound 66]
- IC50 [1, 7]: 0.76 µM
- IC50 [1, 8]: 0.7 µM
- IC50 [2, 9]: 0.8 µM
- IC50 [3, 10]: 0.71 µM
- IC50 [4, 11]: 0.57 µM
- IC50 [5, 12]: 8.39 ± 0.63 µM
- IC50 [6, 13]: 0.89 µM

Compound: C=C1C(=O)C23CC[C@@H](CC2[C@]2(COC(C)=O)CCC[C@@](C)(COC(=O)c4cccs4)C12)C(=C)C3=O (some centres unmarked) [Compound 67]
- IC50 [1, 14]: 0.1 µM
- IC50 [1, 15]: 0.13 µM
- IC50 [2, 16]: 0.14 µM
- IC50 [3, 17]: 0.24 µM
- IC50 [4, 18]: 0.13 µM
- IC50 [5, 19]: 4.92 ± 0.69 µM
- IC50 [6, 20]: 0.15 µM

Compound: C[C@]12CCC[C@@]3(C(=O)OC1)C1C[C@@H]4CCC1(C(=O)[C@H]4CN1CCOCC1)[C@H](O)CC23 (some centres unmarked) [Compound 75]
- IC50 [1, 21]: 8.01 µM
- IC50 [2, 22]: 3.64 µM
- IC50 [3, 23]: 3.78 µM
- IC50 [4, 24]: 5.97 µM
- IC50 [5, 19]: > 60 µM
- IC50 [6, 25]: 4.12 µM

Compound: C[C@]12CCC[C@@]3(C(=O)OC1)C1C[C@@H]4CCC1(C(=O)[C@@H]4CN1CCOCC1)[C@H](O)CC23 (some centres unmarked) [Compound 76]
- IC50 [1, 21]: 7.69 µM
- IC50 [2, 22]: 4.04 µM
- IC50 [3, 23]: 5.28 µM
- IC50 [4, 24]: 13.1 µM
- IC50 [5, 19]: > 60 µM
- IC50 [6, 25]: 5.96 µM

Compound: C=C1C(=O)[C@]23CC[C@H]1CC2[C@@]12CCC[C@@]4(C)C5OCCN5C1O[C@@H]3CC42 (some centres unmarked) [Compound 77]
- IC50 [1, 26]: 1.97 µM
- IC50 [2, 27]: 2.03 µM
- IC50 [3, 28]: 1.34 µM
- IC50 [4, 29]: 1.04 µM
- IC50 [5, 30]: > 60 µM
- IC50 [6, 31]: 0.67 µM

Compound: C=C1C(=O)[C@]23CC[C@H]1CC2[C@@]12CCC[C@@](C)(C(=O)N4CCO[C@H]41)C2C[C@H]3O (some centres unmarked) [Compound 78]
- IC50 ([1]; SW480, 48 h, Table 7 (first), alkaloid derivatives, read-out: IC50 SW-480): 2.81 µM
- IC50 ([2]; A549, 48 h, Table 7 (first), alkaloid derivatives): 3.09 µM
- IC50 ([3]; HL-60, 48 h, Table 7 (first), alkaloid derivatives): 2.73 µM
- IC50 ([4]; SMMC-7721, 48 h, Table 7 (first), alkaloid derivatives): 2.63 µM
- IC50 ([5]; Table 11, HEK293T, Wnt3a conditioned medium, read-out: IC50 (μM), inhibitory activity on the Wnt signaling pathway): 28.7 ± 0.97 µM
- IC50 ([6]; MCF7, 48 h, Table 7 (first), alkaloid derivatives): 1.12 µM

Compound: C=C1C(=O)[C@]23CC[C@H]1CC2[C@@]12CCC[C@@]4(C)C(=O)N(CCO)[C@@H]1O[C@@H]3CC24 (some centres unmarked) [Compound 83]
- IC50 [1, 26]: 12.4 µM
- IC50 [2, 27]: 17.9 µM
- IC50 [3, 28]: 18.6 µM
- IC50 [4, 29]: 18.4 µM
- IC50 [5, 30]: > 60 µM
- IC50 [6, 31]: 13.2 µM

Compound: C=C1C(=O)[C@]23CC[C@H]1CC2[C@@]12CCC[C@@]4(C)C(=O)N[C@@H]1O[C@@H]3CC24 (some centres unmarked) [Compound 84]
- IC50 [1, 26]: 14.2 µM
- IC50 [2, 27]: 19 µM
- IC50 [3, 28]: 18.6 µM
- IC50 [4, 29]: 15.7 µM
- IC50 [5, 30]: 60.6 ± 3.09 µM
- IC50 [6, 31]: 15.7 µM

Compound: C=C1C(=O)[C@]23CC[C@H]1CC2[C@@]12CCC[C@@](C)(CN(CCO)C1)C2C[C@H]3O (some centres unmarked) [Compound 88]
- IC50 [1, 26]: 14.4 µM
- IC50 [2, 27]: 9.92 µM
- IC50 [3, 28]: 7.95 µM
- IC50 [4, 29]: 11.2 µM
- IC50 [5, 30]: > 60 µM
- IC50 [6, 31]: 16.6 µM

The next lines start with the values.

- IC50 [1, 7]: 1.85 µM
- IC50 ([1]; SW480, 48 h, Table 6, 7-hydroxyl derivatives and controls, read-out: IC50 SW-480, 7-hydroxyl derivatives): 2.23 µM
- IC50 [2, 9]: 1.86 µM
- IC50 [3, 10]: 1.37 µM
- IC50 [4, 11]: 0.93 µM
- IC50 [5, 12]: 12.6 ± 1.04 µM
- IC50 [6, 13]: 1.55 µM
Compound: C=C1C(=O)C23CC[C@H]1CC2[C@]1(COS(C)(=O)=O)CCC[C@@](C)(COS(C)(=O)=O)C1C[C@H]3O (some centres unmarked) [Compound 72a]

- IC50 [1, 7]: 2.57 µM
- IC50 [1, 8]: 2.57 µM
- IC50 [2, 9]: 2.89 µM
- IC50 [3, 10]: 3.97 µM
- IC50 [4, 11]: 0.77 µM
- IC50 [5, 12]: 43 ± 5.35 µM
- IC50 [6, 13]: 2.36 µM
Compound: C=C1C(=O)C23CC[C@H]1CC2[C@]1(COS(C)(=O)=O)CCC[C@@](C)(COS(C)(=O)=O)C1CC3=O (some centres unmarked) [Compound 73a]

- IC50 [1, 14]: 0.15 µM
- IC50 [1, 15]: 0.65 µM
- IC50 [2, 16]: 0.56 µM
- IC50 [3, 17]: 0.51 µM
- IC50 [4, 18]: 0.26 µM
- IC50 [5, 19]: 11.2 ± 1.54 µM
- IC50 [6, 20]: 0.53 µM
Compound: C=C1C(=O)C23CC[C@@H](CC2[C@]2(COS(C)(=O)=O)CCC[C@@](C)(COS(C)(=O)=O)C12)C(=C)C3=O (some centres unmarked) [Compound 74a]
